Assay results: ChEMBL document CHEMBL1128713, “N-alkylated nitrogen-in-the-ring sugars: conformational basis of inhibition of glycosidases and HIV-1 replication” (J Med Chem, 1995)
Converted amounts (≈) assume the structure as drawn.

target: T1, Alpha-mannosidase 2 (Rattus norvegicus, UniProt P28494); test: Competitive Inhibitory activity against Golgi Alpha-mannosidase II
T1 sequence (P28494 whole entry): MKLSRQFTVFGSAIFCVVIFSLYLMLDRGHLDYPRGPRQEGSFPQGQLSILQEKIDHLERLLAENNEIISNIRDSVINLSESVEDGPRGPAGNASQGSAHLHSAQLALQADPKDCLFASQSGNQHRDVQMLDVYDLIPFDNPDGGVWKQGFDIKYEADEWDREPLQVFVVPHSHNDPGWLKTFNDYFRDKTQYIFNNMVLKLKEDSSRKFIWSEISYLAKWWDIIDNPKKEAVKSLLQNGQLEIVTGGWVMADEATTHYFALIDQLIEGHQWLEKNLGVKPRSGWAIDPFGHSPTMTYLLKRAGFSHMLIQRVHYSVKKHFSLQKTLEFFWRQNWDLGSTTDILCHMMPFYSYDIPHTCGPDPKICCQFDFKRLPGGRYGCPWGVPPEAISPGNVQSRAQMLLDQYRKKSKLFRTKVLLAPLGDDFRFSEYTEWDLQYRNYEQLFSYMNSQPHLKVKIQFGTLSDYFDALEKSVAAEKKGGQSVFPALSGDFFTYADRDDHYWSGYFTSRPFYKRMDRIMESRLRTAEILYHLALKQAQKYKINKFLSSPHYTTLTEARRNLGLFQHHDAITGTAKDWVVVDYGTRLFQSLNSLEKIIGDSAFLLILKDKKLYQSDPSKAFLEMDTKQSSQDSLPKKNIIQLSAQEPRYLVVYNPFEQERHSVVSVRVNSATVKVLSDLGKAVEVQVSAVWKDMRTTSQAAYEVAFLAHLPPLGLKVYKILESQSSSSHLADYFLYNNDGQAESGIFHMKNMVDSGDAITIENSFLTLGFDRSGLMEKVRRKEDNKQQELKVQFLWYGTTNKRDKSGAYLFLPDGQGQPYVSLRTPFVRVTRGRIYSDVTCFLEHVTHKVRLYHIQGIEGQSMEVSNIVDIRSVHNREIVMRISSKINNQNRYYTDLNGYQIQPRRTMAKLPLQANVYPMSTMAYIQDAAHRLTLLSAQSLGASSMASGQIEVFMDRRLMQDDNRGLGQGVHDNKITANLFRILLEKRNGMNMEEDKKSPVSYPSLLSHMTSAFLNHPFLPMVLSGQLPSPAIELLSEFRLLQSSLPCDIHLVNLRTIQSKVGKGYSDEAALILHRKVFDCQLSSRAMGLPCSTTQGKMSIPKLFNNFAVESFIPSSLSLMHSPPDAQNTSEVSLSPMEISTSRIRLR

Point of comparison: CN1C[C@@H](O)[C@H](O)[C@H]1CO, Ki 51 µM. Against it:
- CCCCN1C[C@@H](O)[C@H](O)[C@H]1CO — 2.4-fold higher, 120 µM
- CCCCN1C[C@H](O)[C@@H](O)[C@H](O)[C@H]1CO — lower, < 50 µM
- OC[C@H]1NC[C@H](O)[C@@H](O)[C@@H]1O [DUVOGLUSTAT] — lower, < 50 µM

target: not listed separately; test: Competitive Inhibitory activity against Endoplasmic reticulum Alpha-Glucosidase II; design: species or system Rattus norvegicus

Point of comparison: CCCCN1C[C@@H](O)[C@H](O)[C@H]1CO, Ki 95 µM. Against it:
- CN1C[C@@H](O)[C@H](O)[C@H]1CO — 1.6-fold higher, 150 µM
- CCCCN1C[C@H](O)[C@@H](O)[C@H](O)[C@H]1CO — 26-fold lower, 3.7 µM

tested on: MOLT-4; test: Concentration giving 50% inhibition of HIV-1 induced cytopathogenicity in MOLT-4 cells; assay type: functional, cell-based, Homo sapiens

Point of comparison: CCCCN1C[C@H](O)[C@@H](O)[C@H](O)[C@H]1CO, EC50 37 µg/mL (≈ 169 µM). Against it:
- CN1C[C@@H](O)[C@H](O)[C@H]1CO — higher, > 100 µg/mL
- CCCCN1C[C@@H](O)[C@H](O)[C@H]1CO — higher, > 100 µg/mL
- OC[C@H]1NC[C@H](O)[C@@H](O)[C@@H]1O [DUVOGLUSTAT] — higher, > 100 µg/mL

target: T2, Sucrase-isomaltase, intestinal (Rattus norvegicus, UniProt P23739); test: Inhibition of Glycosidases (isomaltase)in rat intestinal brush border membranes by D-glucose oxidase-peroxidase method; assay type: cell membranes, Membrane
T2 sequence (P23739 1-1013 limits assumed): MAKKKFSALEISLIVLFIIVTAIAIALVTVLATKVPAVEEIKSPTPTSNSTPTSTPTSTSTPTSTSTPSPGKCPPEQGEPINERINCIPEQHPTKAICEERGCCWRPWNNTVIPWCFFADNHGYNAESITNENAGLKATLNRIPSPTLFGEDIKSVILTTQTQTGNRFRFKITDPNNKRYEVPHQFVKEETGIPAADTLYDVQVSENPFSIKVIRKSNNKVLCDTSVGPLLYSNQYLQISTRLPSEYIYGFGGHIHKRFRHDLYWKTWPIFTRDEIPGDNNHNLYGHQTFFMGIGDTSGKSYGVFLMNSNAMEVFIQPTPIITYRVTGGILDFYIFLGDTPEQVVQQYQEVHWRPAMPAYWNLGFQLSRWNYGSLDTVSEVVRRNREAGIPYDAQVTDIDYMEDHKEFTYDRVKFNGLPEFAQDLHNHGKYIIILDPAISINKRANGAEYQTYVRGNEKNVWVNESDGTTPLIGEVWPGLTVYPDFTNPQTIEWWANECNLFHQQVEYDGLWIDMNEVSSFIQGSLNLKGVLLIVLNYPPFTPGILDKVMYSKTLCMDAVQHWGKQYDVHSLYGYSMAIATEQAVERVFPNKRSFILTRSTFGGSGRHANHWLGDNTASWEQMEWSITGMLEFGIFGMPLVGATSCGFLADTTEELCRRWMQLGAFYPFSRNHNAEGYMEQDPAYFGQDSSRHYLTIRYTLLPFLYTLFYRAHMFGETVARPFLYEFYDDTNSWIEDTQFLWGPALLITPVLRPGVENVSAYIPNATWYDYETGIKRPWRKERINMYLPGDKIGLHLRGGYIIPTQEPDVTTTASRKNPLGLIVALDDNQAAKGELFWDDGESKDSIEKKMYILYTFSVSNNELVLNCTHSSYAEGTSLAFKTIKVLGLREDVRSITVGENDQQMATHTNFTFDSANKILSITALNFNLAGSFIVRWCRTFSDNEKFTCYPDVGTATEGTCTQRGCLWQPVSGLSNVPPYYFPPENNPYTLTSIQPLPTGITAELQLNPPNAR
T2 sequence (P23739 1014-1841 limits assumed): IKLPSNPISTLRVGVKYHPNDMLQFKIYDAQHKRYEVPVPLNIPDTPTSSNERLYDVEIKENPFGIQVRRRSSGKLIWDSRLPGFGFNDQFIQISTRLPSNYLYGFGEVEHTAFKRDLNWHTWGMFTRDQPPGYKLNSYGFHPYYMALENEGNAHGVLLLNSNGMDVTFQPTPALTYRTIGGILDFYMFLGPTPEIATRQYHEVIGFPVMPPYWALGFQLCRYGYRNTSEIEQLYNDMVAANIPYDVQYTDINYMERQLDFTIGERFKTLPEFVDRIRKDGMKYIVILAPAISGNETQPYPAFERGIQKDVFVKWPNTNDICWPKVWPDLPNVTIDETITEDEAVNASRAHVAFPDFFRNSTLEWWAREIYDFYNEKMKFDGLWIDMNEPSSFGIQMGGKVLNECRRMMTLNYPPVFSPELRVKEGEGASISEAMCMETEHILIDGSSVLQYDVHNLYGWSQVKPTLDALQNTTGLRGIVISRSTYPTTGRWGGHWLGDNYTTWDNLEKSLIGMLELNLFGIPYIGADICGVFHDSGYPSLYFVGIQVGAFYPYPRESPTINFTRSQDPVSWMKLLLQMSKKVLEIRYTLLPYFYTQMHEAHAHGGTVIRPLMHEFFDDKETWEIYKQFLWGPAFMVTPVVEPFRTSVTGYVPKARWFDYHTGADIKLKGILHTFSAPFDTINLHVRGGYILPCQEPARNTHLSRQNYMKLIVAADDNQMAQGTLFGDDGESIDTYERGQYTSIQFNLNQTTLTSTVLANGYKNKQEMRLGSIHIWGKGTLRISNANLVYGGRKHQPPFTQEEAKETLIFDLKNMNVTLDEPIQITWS

Point of comparison: CN1C[C@@H](O)[C@H](O)[C@H]1CO, IC50 100 µM. Against it:
- CCCCN1C[C@@H](O)[C@H](O)[C@H]1CO — 3.4-fold higher, 340 µM

target: not listed separately; test: Inhibition of Cellobiase in rat intestinal brush border membranes by D-glucose oxidase-peroxidase method; assay type: cell membranes, Membrane

CN1C[C@@H](O)[C@H](O)[C@H]1CO and CCCCN1C[C@@H](O)[C@H](O)[C@H]1CO cannot be ordered by IC50: < 50 µM for the first, < 50 µM for the second.

In the case of CCCCN1C[C@H](O)[C@@H](O)[C@H](O)[C@H]1CO, the IC50 is reported as < 50 µM.

target: T2, Sucrase-isomaltase, intestinal; test: Inhibition of Sucrase in rat intestinal brush border membranes by D-glucose oxidase-peroxidase method; assay type: cell membranes, Membrane

Point of comparison: CCCCN1C[C@@H](O)[C@H](O)[C@H]1CO, IC50 270 µM. Against it:
- CN1C[C@@H](O)[C@H](O)[C@H]1CO — 3.9-fold lower, 70 µM

target: T3, Trehalase (Rattus norvegicus, UniProt O70282); test: Inhibition of Glycosidases (trehalase)in rat intestinal brush border membranes by D-glucose oxidase-peroxidase method; assay type: cell membranes, Membrane
T3 sequence (O70282 whole entry): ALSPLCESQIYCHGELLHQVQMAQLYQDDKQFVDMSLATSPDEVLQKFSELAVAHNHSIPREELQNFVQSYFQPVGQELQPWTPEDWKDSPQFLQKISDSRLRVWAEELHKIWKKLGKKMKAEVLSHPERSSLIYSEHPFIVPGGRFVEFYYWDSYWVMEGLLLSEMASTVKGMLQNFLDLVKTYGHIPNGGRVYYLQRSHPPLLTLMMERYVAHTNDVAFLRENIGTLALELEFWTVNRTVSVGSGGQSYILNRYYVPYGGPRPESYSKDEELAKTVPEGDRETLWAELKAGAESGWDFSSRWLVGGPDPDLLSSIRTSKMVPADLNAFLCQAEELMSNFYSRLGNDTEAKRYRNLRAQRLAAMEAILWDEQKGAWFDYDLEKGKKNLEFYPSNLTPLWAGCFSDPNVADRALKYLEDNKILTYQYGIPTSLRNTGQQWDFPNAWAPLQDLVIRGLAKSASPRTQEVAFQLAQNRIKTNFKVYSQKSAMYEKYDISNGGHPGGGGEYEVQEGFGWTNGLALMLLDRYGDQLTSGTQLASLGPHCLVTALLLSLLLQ

Point of comparison: CCCCN1C[C@H](O)[C@@H](O)[C@H](O)[C@H]1CO, IC50 13 µM. Against it:
- CN1C[C@@H](O)[C@H](O)[C@H]1CO — not separable, < 50 µM
- CCCCN1C[C@@H](O)[C@H](O)[C@H]1CO — not separable, < 50 µM

target: T4, Mannosidase 2, alpha B1 (Rattus norvegicus, UniProt Q6P762); test: Inhibition of lysosomal Alpha-mannosidase II in rat liver; assay type: tissue-based
T4 sequence (Q6P762 whole entry): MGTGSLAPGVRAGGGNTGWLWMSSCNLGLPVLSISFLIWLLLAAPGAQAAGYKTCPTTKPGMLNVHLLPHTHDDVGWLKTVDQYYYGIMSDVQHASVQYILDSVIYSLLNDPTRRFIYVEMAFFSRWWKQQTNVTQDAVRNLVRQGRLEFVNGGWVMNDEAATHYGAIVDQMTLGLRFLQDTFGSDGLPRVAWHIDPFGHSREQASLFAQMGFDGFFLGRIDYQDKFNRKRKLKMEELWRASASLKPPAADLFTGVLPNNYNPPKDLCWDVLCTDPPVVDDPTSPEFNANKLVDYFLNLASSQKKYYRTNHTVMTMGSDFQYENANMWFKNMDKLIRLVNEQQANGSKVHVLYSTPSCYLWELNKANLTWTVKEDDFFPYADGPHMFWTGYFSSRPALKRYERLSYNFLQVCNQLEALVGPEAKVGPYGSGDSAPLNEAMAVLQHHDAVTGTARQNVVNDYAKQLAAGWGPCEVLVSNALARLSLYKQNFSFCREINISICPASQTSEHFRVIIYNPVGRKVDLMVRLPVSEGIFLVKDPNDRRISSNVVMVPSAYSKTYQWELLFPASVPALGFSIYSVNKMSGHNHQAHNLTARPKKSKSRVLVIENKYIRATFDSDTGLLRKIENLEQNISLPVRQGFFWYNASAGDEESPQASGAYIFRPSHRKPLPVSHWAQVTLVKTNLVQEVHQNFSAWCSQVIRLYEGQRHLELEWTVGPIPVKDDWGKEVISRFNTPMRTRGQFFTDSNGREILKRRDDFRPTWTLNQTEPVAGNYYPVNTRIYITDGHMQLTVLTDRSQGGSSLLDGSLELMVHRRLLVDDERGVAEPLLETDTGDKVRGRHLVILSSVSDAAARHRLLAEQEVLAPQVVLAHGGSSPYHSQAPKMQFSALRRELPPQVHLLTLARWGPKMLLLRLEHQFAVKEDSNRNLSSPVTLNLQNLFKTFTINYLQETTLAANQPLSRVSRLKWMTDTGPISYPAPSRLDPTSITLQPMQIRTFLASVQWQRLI

Point of comparison: CN1C[C@@H](O)[C@H](O)[C@H]1CO, IC50 360 µM. Against it:
- CCCCN1C[C@@H](O)[C@H](O)[C@H]1CO — lower, < 50 µM
- CCCCN1C[C@H](O)[C@@H](O)[C@H](O)[C@H]1CO — lower, < 50 µM

target: T1, Alpha-mannosidase 2; test: Inhibition of golgi Alpha-mannosidase II in rat liver; assay type: tissue-based

Point of comparison: CCCCN1C[C@@H](O)[C@H](O)[C@H]1CO, IC50 130 µM. Against it:
- CN1C[C@@H](O)[C@H](O)[C@H]1CO — 2-fold lower, 64 µM
- CCCCN1C[C@H](O)[C@@H](O)[C@H](O)[C@H]1CO — lower, < 50 µM
- OC[C@H]1NC[C@H](O)[C@@H](O)[C@@H]1O [DUVOGLUSTAT] — lower, < 50 µM

target: Lactase/phlorizin hydrolase (Rattus norvegicus, UniProt Q02401); test: Inhibition of Glycosidases (lactase)in rat intestinal brush border membranes by D-glucose oxidase-peroxidase method; assay type: cell membranes, Membrane
Sequence (Q02401 868-1928 limits assumed): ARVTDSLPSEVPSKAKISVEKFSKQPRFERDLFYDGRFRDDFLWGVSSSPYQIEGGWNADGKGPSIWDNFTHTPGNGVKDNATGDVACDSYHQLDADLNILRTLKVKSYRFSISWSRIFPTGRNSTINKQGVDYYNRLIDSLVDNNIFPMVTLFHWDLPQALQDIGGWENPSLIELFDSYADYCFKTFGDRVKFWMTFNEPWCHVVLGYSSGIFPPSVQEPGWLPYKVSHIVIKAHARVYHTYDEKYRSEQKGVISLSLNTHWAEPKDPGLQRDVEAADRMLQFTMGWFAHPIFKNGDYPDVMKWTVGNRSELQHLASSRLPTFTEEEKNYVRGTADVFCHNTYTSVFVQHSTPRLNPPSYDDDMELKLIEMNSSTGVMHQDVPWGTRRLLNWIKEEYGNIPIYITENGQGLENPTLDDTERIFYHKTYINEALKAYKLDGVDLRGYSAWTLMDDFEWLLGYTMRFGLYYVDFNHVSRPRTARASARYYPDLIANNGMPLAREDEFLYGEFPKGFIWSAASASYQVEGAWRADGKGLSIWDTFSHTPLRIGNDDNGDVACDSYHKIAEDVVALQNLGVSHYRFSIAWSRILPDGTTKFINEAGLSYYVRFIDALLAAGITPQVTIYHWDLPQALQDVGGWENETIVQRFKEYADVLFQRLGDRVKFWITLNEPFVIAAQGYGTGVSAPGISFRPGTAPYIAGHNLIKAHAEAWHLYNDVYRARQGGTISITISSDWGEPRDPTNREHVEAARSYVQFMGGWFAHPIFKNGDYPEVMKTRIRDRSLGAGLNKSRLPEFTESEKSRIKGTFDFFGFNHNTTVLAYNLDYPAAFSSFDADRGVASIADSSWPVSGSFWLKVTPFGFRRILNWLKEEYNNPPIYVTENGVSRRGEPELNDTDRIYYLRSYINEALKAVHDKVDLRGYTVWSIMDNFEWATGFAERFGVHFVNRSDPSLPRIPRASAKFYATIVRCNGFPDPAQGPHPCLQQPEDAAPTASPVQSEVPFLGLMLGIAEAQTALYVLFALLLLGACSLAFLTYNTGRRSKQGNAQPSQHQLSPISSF

CN1C[C@@H](O)[C@H](O)[C@H]1CO and CCCCN1C[C@@H](O)[C@H](O)[C@H]1CO cannot be ordered by IC50: < 50 µM for the first, < 50 µM for the second.

target: T5, Alpha-mannosidase 2C1 (Rattus norvegicus, UniProt P21139); test: Inhibition of soluble Alpha-mannosidase II in rat liver; assay type: tissue-based
T5 sequence (P21139 whole entry): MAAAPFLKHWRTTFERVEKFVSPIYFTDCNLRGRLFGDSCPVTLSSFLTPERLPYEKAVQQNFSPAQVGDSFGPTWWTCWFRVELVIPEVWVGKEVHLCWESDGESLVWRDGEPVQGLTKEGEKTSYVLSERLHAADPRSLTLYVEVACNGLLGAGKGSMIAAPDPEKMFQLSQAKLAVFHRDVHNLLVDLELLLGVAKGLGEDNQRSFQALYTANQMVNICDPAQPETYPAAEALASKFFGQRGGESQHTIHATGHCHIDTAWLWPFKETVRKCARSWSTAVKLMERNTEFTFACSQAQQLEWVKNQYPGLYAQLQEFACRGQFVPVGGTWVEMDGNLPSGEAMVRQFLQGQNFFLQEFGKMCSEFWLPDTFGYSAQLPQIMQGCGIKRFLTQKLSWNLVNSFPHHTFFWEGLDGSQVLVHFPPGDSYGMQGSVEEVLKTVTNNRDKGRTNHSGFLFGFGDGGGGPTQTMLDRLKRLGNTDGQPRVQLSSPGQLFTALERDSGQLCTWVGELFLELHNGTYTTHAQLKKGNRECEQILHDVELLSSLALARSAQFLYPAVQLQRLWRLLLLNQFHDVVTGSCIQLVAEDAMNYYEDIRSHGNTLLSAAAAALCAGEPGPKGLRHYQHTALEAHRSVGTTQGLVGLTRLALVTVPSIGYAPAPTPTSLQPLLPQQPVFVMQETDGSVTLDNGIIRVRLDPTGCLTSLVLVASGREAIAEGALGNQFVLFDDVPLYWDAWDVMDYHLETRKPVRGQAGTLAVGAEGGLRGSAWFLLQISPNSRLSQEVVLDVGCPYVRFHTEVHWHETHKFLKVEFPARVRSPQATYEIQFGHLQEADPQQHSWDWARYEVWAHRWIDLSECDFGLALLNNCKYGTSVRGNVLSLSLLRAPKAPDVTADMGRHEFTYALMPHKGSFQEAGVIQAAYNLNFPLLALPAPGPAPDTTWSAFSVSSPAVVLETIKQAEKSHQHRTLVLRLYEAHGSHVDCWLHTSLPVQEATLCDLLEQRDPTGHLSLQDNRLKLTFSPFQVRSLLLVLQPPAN

CN1C[C@@H](O)[C@H](O)[C@H]1CO and CCCCN1C[C@@H](O)[C@H](O)[C@H]1CO cannot be ordered by IC50: < 50 µM for the first, < 50 µM for the second.

With CCCCN1C[C@H](O)[C@@H](O)[C@H](O)[C@H]1CO the IC50 was < 50 µM.

tested on: MT4; test: Concentration giving 50% inhibition of HIV-1 induced cytopathogenicity in MT-4 cells; assay type: functional, cell-based, Homo sapiens

Point of comparison: CCCCN1C[C@H](O)[C@@H](O)[C@H](O)[C@H]1CO, EC50 49 µg/mL (≈ 223 µM). Against it:
- CN1C[C@@H](O)[C@H](O)[C@H]1CO — higher, > 100 µg/mL
- CCCCN1C[C@@H](O)[C@H](O)[C@H]1CO — higher, > 100 µg/mL
- OC[C@H]1NC[C@H](O)[C@@H](O)[C@@H]1O [DUVOGLUSTAT] — higher, > 100 µg/mL

target: not listed separately; test: Inhibition of lysosomal Alpha-Glucosidase II in rat liver

Point of comparison: OC[C@H]1NC[C@H](O)[C@@H](O)[C@@H]1O [DUVOGLUSTAT], IC50 0.4 µM. Against it:
- CN1C[C@@H](O)[C@H](O)[C@H]1CO — 450-fold higher, 180 µM
- CCCCN1C[C@@H](O)[C@H](O)[C@H]1CO — 1900-fold higher, 750 µM
- CCCCN1C[C@H](O)[C@@H](O)[C@H](O)[C@H]1CO — 13-fold higher, 5.3 µM

target: not listed separately; test: Inhibition of endoplasmic reticulum Alpha-Glucosidase II in rat liver; assay type: tissue-based

Point of comparison: CCCCN1C[C@@H](O)[C@H](O)[C@H]1CO, IC50 200 µM. Against it:
- CN1C[C@@H](O)[C@H](O)[C@H]1CO — 1.6-fold higher, 310 µM
- CCCCN1C[C@H](O)[C@@H](O)[C@H](O)[C@H]1CO — 13-fold lower, 15 µM
